Results on 13 compounds are retold here after paper PMC7765794 (Nutrients, 2020).

The test system of one assay is ODC-empty HL-60 cells. The experiment in a line: Cell growth and apoptosis in HL-60 cells with ODC-empty vector. The class given is cell-based, human. As to conditions: 50 μM baicalein or 75 µM myricetin; for cell growth of ODC-empty HL-60 cells (in words): 24 h. The procedure: (§1) Cells (2 × 10^6/mL) were seeded into 60-mm Petri dishes and incubated at 37 °C. The cells were harvested by treatment with 5 µM rottlerin. Viable cells were counted using the trypan blue exclusion method. The cell suspension was mixed on a slide with an equal volume of acridine orange solution (10 mg/mL). Green fluorescence was detected between 500 and 525 nm with a fluorescence microscope (Zeiss, Oberkochen, Germany). The ODC-empty vector (pcDNA3-ODC-empty) and ODC-overexpressing vector (pcDNA3-ODC-WT) were transfected into parental HL-60 cells according to calcium phosphate-mediated transfection. Stably transfected cells were selected with the antibiotic G418 (400 μg/mL). After three weeks, the isolated G418-resistant clones were individually selected to analyze the protein expression of ODC in the cells. Cells were harvested and lysed overnight in digestion buffer (0.5% sarkosyl, 0.5 mg/mL proteinase K, 50 mM Tris-HCl, pH 8.0 and 10 mM ethylenediamine tetraacetic acid (EDTA) at 55 °C). Subsequently, cells were treated with 0.5 μg/mL RNase A for 2 h. Genomic DNA was extracted by phenol/chloroform/isoamyl alcohol extraction and analyzed by gel electrophoresis using 2% agarose.

In the next assay the test system is HL-60 cells. Kind of assay: Cell viability (trypan blue), acridine orange staining and DNA fragmentation in HL-60 cells. The class given is cell-based, human. As to conditions: for apoptosis in HL-60 cells (apoptotic bodies, DNA fragmentation): 50 μM baicalein or up to 75 µM myricetin, 24 h; for IC50: Homo sapiens, HL-60, after 24 h, viable cell count. On the procedure: The human promyelocytic leukemia HL-60 and human acute Jurkat T cell leukemia cell lines were grown in 90% RPMI 1640 medium supplemented with 10% fetal bovine serum (FBS) at a temperature of 37 °C under a humidified 5% CO2 atmosphere. These cell lines were approved by short tandem repeat profiling, and the cells were passaged for no more than 2 months. Cells (2 × 10^6/mL) were seeded into 60-mm Petri dishes and incubated at 37 °C. The cells were harvested by treatment with 5 µM rottlerin. Viable cells were counted using the trypan blue exclusion method. The cell suspension was mixed on a slide with an equal volume of acridine orange solution (10 mg/mL). Green fluorescence was detected between 500 and 525 nm with a fluorescence microscope (Zeiss, Oberkochen, Germany). Cells were harvested and lysed overnight in digestion buffer (0.5% sarkosyl, 0.5 mg/mL proteinase K, 50 mM Tris-HCl, pH 8.0 and 10 mM ethylenediamine tetraacetic acid (EDTA) at 55 °C). Subsequently, cells were treated with 0.5 μg/mL RNase A for 2 h. Genomic DNA was extracted by phenol/chloroform/isoamyl alcohol extraction and analyzed by gel electrophoresis using 2% agarose.

A further assay relates to Jurkat cells. The experiment in a line: Cell growth and apoptosis in Jurkat cells. The format is cell-based, human. As to conditions: for growth of Jurkat cells (in words): 100 µM baicalein or 75 µM myricetin (Figure S5); for apoptosis of Jurkat cells (in words): 100 µM baicalein or myricetin (Figure S5). The procedure:
The human promyelocytic leukemia HL-60 and human acute Jurkat T cell leukemia cell lines were grown in 90% RPMI 1640 medium supplemented with 10% fetal bovine serum (FBS) at a temperature of 37 °C under a humidified 5% CO2 atmosphere. These cell lines were approved by short tandem repeat profiling, and the cells were passaged for no more than 2 months.
Cells (2 × 10^6/mL) were seeded into 60-mm Petri dishes and incubated at 37 °C. The cells were harvested by treatment with 5 µM rottlerin. Viable cells were counted using the trypan blue exclusion method. The cell suspension was mixed on a slide with an equal volume of acridine orange solution (10 mg/mL). Green fluorescence was detected between 500 and 525 nm with a fluorescence microscope (Zeiss, Oberkochen, Germany).
Cells were harvested and lysed overnight in digestion buffer (0.5% sarkosyl, 0.5 mg/mL proteinase K, 50 mM Tris-HCl, pH 8.0 and 10 mM ethylenediamine tetraacetic acid (EDTA) at 55 °C). Subsequently, cells were treated with 0.5 μg/mL RNase A for 2 h. Genomic DNA was extracted by phenol/chloroform/isoamyl alcohol extraction and analyzed by gel electrophoresis using 2% agarose.
(C) and (D) Apoptotic bodies […]
(1 picture or pasted object on this page, not shown here)

For another assay, the target named is T1, human ODC (Homo sapiens, UniProt P11926).
T1 construct: His-tag (N); made in house; host or cells: Escherichia coli JM109
T1 sequence (P11926 1-461): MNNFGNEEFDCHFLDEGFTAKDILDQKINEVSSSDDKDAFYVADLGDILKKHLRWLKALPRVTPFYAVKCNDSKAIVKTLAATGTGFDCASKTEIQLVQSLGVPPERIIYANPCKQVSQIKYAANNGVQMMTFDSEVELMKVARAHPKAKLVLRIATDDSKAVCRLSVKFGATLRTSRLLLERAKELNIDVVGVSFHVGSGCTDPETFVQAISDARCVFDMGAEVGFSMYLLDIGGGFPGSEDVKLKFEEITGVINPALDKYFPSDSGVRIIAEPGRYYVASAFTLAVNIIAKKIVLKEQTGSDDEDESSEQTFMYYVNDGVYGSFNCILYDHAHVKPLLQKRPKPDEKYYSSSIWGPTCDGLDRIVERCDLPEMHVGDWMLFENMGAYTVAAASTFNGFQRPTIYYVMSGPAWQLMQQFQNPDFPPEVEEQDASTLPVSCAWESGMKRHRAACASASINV
Kind of assay: ODC enzyme activity assay and inhibition study (CO2-L3K coupled spectrophotometric assay).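 For all read-outs here: His-tagged human ODC expressed in Escherichia coli, activity followed as decarboxylation coupled via PEP carboxylation and malate formation to NADH analog oxidation, absorbance drop at 405 nm.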 The class given is biochemical. Particulars: for IC50 / IC50 to ornithine decarboxylase (ODC): purified human ODC, 37 °C, 10 mM ornithine, 0.2 mM PLP, n = 3; for IC50: read-out: IC50 to ornithine decarboxylase (ODC); for ODC suppression activity (in words): purified human ODC enzyme activity.

The subject of another assay is ODC-WT HL-60 cells. Kind of assay: Cell growth and apoptosis in ODC-overexpressing HL-60 cells. The format is cell-based, human. As to conditions: for apoptosis in ODC-WT HL-60 cells (in words): 50 μM baicalein or 75 µM myricetin. The procedure:
as §1, with “The cells were harvested by treatment with 5 µM rottlerin.” left out

The structures appear in SMILES notation.

As usually defined, the IC50 is the concentration at which inhibition is half-maximal. What is called Ki is the dissociation constant of the complex between target and ligand, obtained from inhibition or displacement. With `O=c1cc(-c2ccccc2)oc2cc(O)c(O)c(O)c12` [Baicalein, 5,6,7-trihydroxyflavone], in the assay with ODC-empty HL-60 cells, the “apoptosis in ODC-empty HL-60 cells (in words)” value is “appearance of apoptotic bodies and DNA fragmentation”; the “cell growth of ODC-empty HL-60 cells (in words)” value is “growth arrest”. In the assay with HL-60 cells, the “apoptosis in HL-60 cells (apoptotic bodies, DNA fragmentation)” value is reported as “exhibited apoptosis” and the IC50 was ~50 µM. For the same compound, the “cell death / growth suppression in HL-60 cells (in words)” value in the assay on HL-60 cells (baicalein 0–70 μM) is “cell death was dose-dependent”. Also, in the assay with Jurkat cells, the “growth of Jurkat cells (in words)” value is “suppressed the growth of Jurkat cells” and the “apoptosis of Jurkat cells (in words)” value was “induced cellular apoptosis with DNA fragmentation”. Also, on human ODC, the IC50 came out at 0.88 µM. Besides, the inhibition constant (Ki) at human ODC (with respect to substrate L-ornithine, noncompetitive fit, read-out: Ki(ornithine) against ODC) amounted to 0.64 ± 0.18 µM. In the assay on ODC-WT HL-60 cells, the “apoptosis in ODC-WT HL-60 cells (in words)” value was “normal cell morphology and slight DNA fragmentation”. The “cell growth of ODC-WT HL-60 cells (in words)” value with ODC-WT HL-60 cells (50 μM baicalein, 24 h) is reported as “growth arrest”.
Consider `O=c1c(O)c(-c2cc(O)c(O)c(O)c2)oc2cc(O)cc(O)c12` [Myricetin], for which, in the assay on ODC-empty HL-60 cells, the “apoptosis in ODC-empty HL-60 cells (in words)” value is on record as “induced apoptotic bodies in ODC-empty cells” and the “cell growth of ODC-empty HL-60 cells (in words)” value is on record as “more effective than in ODC-WT HL-60 cells”. In the assay on HL-60 cells, the “apoptosis in HL-60 cells (apoptotic bodies, DNA fragmentation)” value was “induced apoptosis” and the IC50 was ~75 µM. Moreover, in the assay with Jurkat cells, the “growth of Jurkat cells (in words)” value is “suppressed the growth of Jurkat cells” and the “apoptosis of Jurkat cells (in words)” value is “induced cellular apoptosis with DNA fragmentation”. Besides, at human ODC, the IC50 came to 7.3 µM. The “apoptosis in ODC-WT HL-60 cells (in words)” value with ODC-WT HL-60 cells was “but not in ODC-WT HL-60 cells”.
Regarding `O=c1cc(-c2ccccc2)oc2ccccc12` [Flavone], at human ODC, the “ODC suppression activity (in words)” value was “little ODC suppression activity” and the “IC50 to ornithine decarboxylase (ODC)” value is reported as “No inhibition”.
Turning to `O=c1cc(-c2ccccc2)oc2cc(O)c(O)cc12` [6,7-Dihydroxyflavone], the “IC50 relative to that of 7,8-DHF” value against human ODC (IC50 greater than that of 7,8-DHF) is reported as “approximately 100 fold”. For the same compound, on human ODC, the half-maximal inhibitory concentration (IC50) was 289 µM.
`O=C1C[C@@H](c2ccc(O)cc2)Oc2cc(O)cc(O)c21` [Naringenin]: on human ODC, the “ODC suppression activity (in words)” value is listed as “did not show any ODC suppression activity” and the “IC50 to ornithine decarboxylase (ODC)” value was “No inhibition”.
As for `Cc1ncc(CO)c(C)c1O` [4-Deoxypyridoxine, reference compound], the results for the “ODC suppression activity (in words)” value at human ODC and on human ODC (listed as 4-deoxypyridoxine) were “cannot inhibit ODC activity” and “none of these compounds were able to suppress ODC activity”, respectively.
Regarding `Cc1ncc(CO)c(CN)c1O` [Pyridoxamine, reference compound], the results for the “ODC suppression activity (in words)” value on human ODC and at human ODC (listed as pyridoxamine) were “cannot inhibit ODC activity” and “none of these compounds were able to suppress ODC activity”, respectively.
In the case of `Cc1ncc(CO)c(C(=O)O)c1O` [4-Pyridoxic acid, reference compound], the “ODC suppression activity (in words)” value on human ODC was “cannot inhibit ODC activity”; at human ODC (listed as 4-pyridoxic acid), “none of these compounds were able to suppress ODC activity”.
For `NCCCC(N)(C(=O)O)C(F)F` (racemic) [DFMO, α-DL-difluoromethylornithine, reference compound], the half-inhibitory concentration (IC50) on human ODC is ~100 µM.
For `O=c1cc(-c2ccccc2)oc2ccc(O)cc12` [6-Hydroxyflavone], on human ODC, the “ODC suppression activity (in words)” value is given as “did not show any ODC suppression activity” and the “IC50 to ornithine decarboxylase (ODC)” value is on record as “No inhibition”.
For the compound `O=c1cc(-c2ccccc2)oc2cc(O)cc(O)c12` [Chrysin], at human ODC, the “ODC suppression activity (in words)” value is given as “little ODC suppression activity” and the “IC50 to ornithine decarboxylase (ODC)” value was “No inhibition”.
`O=c1c(O)c(-c2ccc(O)c(O)c2)oc2cc(O)ccc12` [Fisetin]: the IC50 at human ODC was 96 µM.
`Cn1c(=O)c2[nH]cnc2n(C)c1=O` [Theophylline, reference compound]: the “ODC suppression activity (in words)” value at human ODC is “cannot inhibit ODC activity”; at human ODC (listed as theophylline), “none of these compounds were able to suppress ODC activity”.
